The values below come from PubChem BioAssay (NCI).

Test systems include CCRF-CEM leukemia; EKVX NSCLC; SK-OV-3 ovarian; SF-295 CNS; TK-10 renal; MALME-3M melanoma; SR leukemia; MDA-MB-231 breast; T-47D breast; ACHN renal.
Common to all, as to assay: NCI anticancer screen, dose series, 48 h

“And” between values parts separate entries of the source, which are not always exact repeats. Identical values can stand only once.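 Interpolation was linear, between the two tested concentrations surrounding the appropriate level; five concentrations were tested over 48 hours in 96-well plates. Abbreviation: GI50, concentration required for 50% inhibition of growth. TGI: total growth inhibition.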

As to `COc1ccc(C2NC(=S)NC3=C2CCOc2c3ccc3ccccc23)cc1` (stereo not given), the GI50 is above 100 µM with CCRF-CEM leukemia; 17.4 µM in the assay on EKVX NSCLC; above 100 µM in the assay on SK-OV-3 ovarian; 19.1 µM in the assay on SF-295 CNS; above 100 µM with TK-10 renal; 49.8 µM in the assay on MALME-3M melanoma. Besides, the GI50 with SR leukemia was 7.27 µM; with MDA-MB-231 breast, 98.9 µM; with T-47D breast it was 8.5 µM; with ACHN renal it was 69.3 µM. The TGI in the assay on CCRF-CEM leukemia, in the assay on EKVX NSCLC, in the assay on SK-OV-3 ovarian, in the assay on SF-295 CNS, with TK-10 renal and in the assay with MALME-3M melanoma was above 100 µM throughout. Besides, the TGI in the assay on SR leukemia, in the assay on MDA-MB-231 breast, with T-47D breast and with ACHN renal was above 100 µM in each case.
Regarding `Cn1c(=O)c2c(nc(N/N=C/c3ccccc3C(=O)O)n2C)n(C)c1=O`, the TGI in the assay with CCRF-CEM leukemia, with EKVX NSCLC, with SK-OV-3 ovarian, with SF-295 CNS, in the assay on TK-10 renal and in the assay on MALME-3M melanoma was above 100 µM in each case. The TGI in the assay with SR leukemia, in the assay on MDA-MB-231 breast, in the assay with T-47D breast and in the assay with ACHN renal was above 100 µM in each case.
For the molecule `NC(=O)/C(=C/n1cnc(-c2cc(C(F)(F)F)cc(C(F)(F)F)c2)n1)c1cncnc1`, the GI50 in the assay on CCRF-CEM leukemia is 0.231 µM; in the assay on EKVX NSCLC it was 0.566 µM; in the assay on SK-OV-3 ovarian it was 1.57 µM; in the assay on SF-295 CNS, 0.667 µM; in the assay on TK-10 renal it was 0.986 µM; with MALME-3M melanoma, 0.256 µM. The GI50 in the assay on SR leukemia is 0.0563 µM; with MDA-MB-231 breast it was 0.186 µM; with T-47D breast it was 0.116 µM; in the assay on ACHN renal, 0.386 µM. Also, the TGI is 14.4 µM in the assay on CCRF-CEM leukemia; 20.8 µM with EKVX NSCLC; 43.1 µM in the assay on SK-OV-3 ovarian; 17.1 µM with SF-295 CNS; 13.5 µM with TK-10 renal; 9.03 µM with MALME-3M melanoma. Also, the TGI is above 34.4 µM in the assay with SR leukemia, 16.9 µM in the assay on MDA-MB-231 breast, 11.8 µM in the assay with T-47D breast and 11.4 µM with ACHN renal.
For `NCCCN=c1ccc2c3c1c(O)c1c(O)ccc(=O)c1c3[nH]n2CCNCCO`, the GI50 in the assay on CCRF-CEM leukemia was 0.583 µM and 0.478 µM; with EKVX NSCLC, 6.08 µM and 4.62 µM; in the assay with SK-OV-3 ovarian, 1.51 µM; with SF-295 CNS, 1.06 µM; in the assay on TK-10 renal, 6.59 µM; in the assay on SR leukemia it was 0.291 µM. For the same molecule, the GI50 in the assay with MDA-MB-231 breast is 2.43 µM. Besides, the TGI is 8.77 µM and 28.3 µM in the assay with CCRF-CEM leukemia; 17.9 µM and 42 µM with EKVX NSCLC; 16.2 µM and 55.7 µM with SK-OV-3 ovarian; 7.44 µM and 39.9 µM in the assay with SF-295 CNS; 21.3 µM and 77.7 µM with TK-10 renal; 6 µM in the assay with MALME-3M melanoma. Moreover, the TGI was 12.3 µM and 25 µM with MDA-MB-231 breast; 15.8 µM in the assay on T-47D breast; 4.52 µM in the assay with ACHN renal.
For `C[As](C)SC1OCC(O)C(O)C1O` (stereo not given), the GI50 with CCRF-CEM leukemia was 0.4 µM; in the assay with EKVX NSCLC it was 1.29 µM; in the assay on SK-OV-3 ovarian, 0.211 µM; in the assay with SF-295 CNS it was 7.18 µM; with TK-10 renal, below 0.0258 µM; with MALME-3M melanoma, 0.069 µM. Besides, the GI50 in the assay with SR leukemia is 0.0255 µM; in the assay with MDA-MB-231 breast, 0.224 µM; in the assay on T-47D breast, 0.158 µM; in the assay with ACHN renal, 0.148 µM. Besides, the TGI with CCRF-CEM leukemia was 6.42 µM; with EKVX NSCLC it was 6.23 µM; with SK-OV-3 ovarian it was 4.47 µM; in the assay on TK-10 renal, 0.19 µM; in the assay on MALME-3M melanoma, 0.366 µM; in the assay on SR leukemia it was 0.0849 µM. Further, the values for the TGI in the assay on MDA-MB-231 breast, with T-47D breast and in the assay with ACHN renal were 0.63 µM, 4.74 µM and 0.624 µM, respectively.
As to `CCOC(=O)[C@@H]1CSC(CC)=C(C(=O)O)N1`, the GI50 in the assay with CCRF-CEM leukemia, in the assay with EKVX NSCLC, in the assay on SK-OV-3 ovarian, in the assay with SF-295 CNS, in the assay on TK-10 renal and in the assay with MALME-3M melanoma was above 100 µM throughout. Also, the GI50 in the assay on SR leukemia, in the assay on MDA-MB-231 breast, in the assay with T-47D breast and with ACHN renal was above 100 µM in each case. The TGI in the assay on CCRF-CEM leukemia, in the assay with EKVX NSCLC, in the assay with SK-OV-3 ovarian, in the assay with SF-295 CNS, in the assay with TK-10 renal and in the assay on MALME-3M melanoma was above 100 µM throughout. Also, the TGI with SR leukemia, with MDA-MB-231 breast, with T-47D breast and in the assay with ACHN renal was above 100 µM each time.
`COc1cc(-c2nn(-c3cccc(NC(=O)CCNc4ccc(N5CCOCC5)cc4)c3)cc2-c2ccncc2)ccc1Cl`: the GI50 with CCRF-CEM leukemia was 2.95 µM; with EKVX NSCLC it was 3.07 µM; in the assay with SK-OV-3 ovarian, 5.02 µM; with SF-295 CNS, 2.09 µM; with TK-10 renal it was 3.13 µM; in the assay with MALME-3M melanoma, 2.31 µM. Further, the GI50 with SR leukemia is 2.13 µM; in the assay on MDA-MB-231 breast it was 2.05 µM; with T-47D breast, 1.99 µM; in the assay on ACHN renal, 2.44 µM. Besides, the TGI is above 100 µM in the assay with CCRF-CEM leukemia; above 100 µM in the assay on EKVX NSCLC; above 100 µM in the assay with SK-OV-3 ovarian; 26 µM in the assay with SF-295 CNS; 47.9 µM in the assay on TK-10 renal; 6.93 µM with MALME-3M melanoma. Also, the TGI in the assay on SR leukemia turned out to be 9.09 µM; in the assay on MDA-MB-231 breast it was 7.18 µM; in the assay on T-47D breast, 7.91 µM; in the assay with ACHN renal, 41.4 µM.
